From PubChem BioAssay (NCI) come the findings set out here.

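The compound was tested at five concentrations on cells cultured in 96-well plates, with a 48-hour exposure period. TGI: total growth inhibition.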

For the first assay, the system named is KM12 colon. Nature of the assay: NCI tumour cell line growth inhibition, 48 h.
Take `O=c1cc(N=P(c2ccccc2)(c2ccccc2)c2ccccc2)n(-c2ccccc2)c(=O)n1-c1ccccc1`: the TGI was > 100 µM.

As for `COc1ccc(C2(CC(C)O)SCCCS2)cc1` (configuration not stated), the TGI was > 100 µM.

Regarding `Clc1ccc(-c2nn3c(-c4ccncc4)nnc3s2)cc1`, the TGI was > 100 µM.

For the compound `COc1ccc(C(OCC2OC(n3cc(C)c(=O)[nH]c3=O)CC2n2cc(Cn3cc(F)c(=O)[nH]c3=O)nn2)(c2ccccc2)c2ccccc2)cc1` (configuration not stated), the TGI is 14.3 µM.

As for `C=CCn1c(=O)ccn(COCCO)c1=O`, the TGI is > 100 µM.

For `Oc1ccccc1/C=N/c1nc2cc3sc(/N=C/c4ccccc4O)nc3cc2s1`, the TGI was > 100 µM.

For the compound `CCN(CC)CCOc1ccc(N2C(=O)c3cc(OC)c(OC)cc3C2=O)cc1`, the TGI is > 100 µM.

Compound `C(=N\NC1=NCCCN1)/c1ccc2ccccc2c1` gave a TGI of 28 µM.

For the compound `CCOC(=N)n1c(=O)n(C2=NCCN2)c2ccccc21`, the TGI is > 100 µM.

For the compound `O=C(NCCN1CCOCC1)c1ccc2cc(C(=O)N3CC(CCl)c4ccc([N+](=O)[O-])cc43)[nH]c2c1` (configuration not stated), the TGI is > 100 µM.

On to `O=c1c2cc3c(cc2[nH]c2ncccc12)OCO3`, for which the TGI was > 10 µM.

`O=C(CNc1ccccc1Cl)Nn1c(-c2ccccc2)nc2ccccc2c1=O` returned a TGI of 87.1 µM.

For `Cc1csc(-c2cn(C)c3c2C(=O)C(N)=CC3=O)n1`, the TGI was > 100 µM.

Turning to `Cc1cc2[nH]c3[nH]c(=O)[nH]c(=O)c3c2cc1C`, the TGI is > 100 µM.

As to `Nc1c(-c2cccc3ccccc23)c2ccc([N+](=O)[O-])cc2c(=O)n1-c1nc2ccccc2s1`, the TGI was 24.4 µM.

As for `CC1CC[C@@]2(OC1)OC1C[C@H]3[C@@H]4CC[C@H]5CC(OC6OC(CO)C(OC7OC(CO)C(O)C(O)C7OC7OC(CO)C(O)C(O)C7O)C(O)C6O)CCC5(C)[C@H]4CCC3(C)C1[C@@H]2C` (some centres not stated), the TGI worked out at 10.4 µM.

In the case of `CC1(C)N=C(C(N)=O)c2ncn(CCCO)c2N1`, the TGI was > 100 µM.

Compound `CC(C)COP(=O)(OCC(C)C)C(NS(=O)(=O)c1ccccc1)(C(F)(F)F)C(F)(F)F` came in with a TGI of 14.4 µM.

In turn, `CN(C)CCCN1C(=S)N(CCCN(C)C)c2c3cc(O)ccc3nc3c([N+](=O)[O-])ccc1c23` displayed a TGI of 9.51 µM.

As for `CC(O)C1CC1(CO)CNc1cc(Cl)nc(N)n1` (configuration not stated), the TGI is > 100 µM.

Regarding `CN(C)Cc1cc(C(=O)/C=C/c2ccc(O)cc2)cc(CN(C)C)c1O`, the TGI was > 100 µM.

A further assay deals with HOP-62 NSCLC. The assay can be described thus: NCI tumour cell line growth inhibition, 48 h.
In turn, `O=c1cc(N=P(c2ccccc2)(c2ccccc2)c2ccccc2)n(-c2ccccc2)c(=O)n1-c1ccccc1` showed a TGI of 32.4 µM.

In the case of `COc1ccc(C2(CC(C)O)SCCCS2)cc1` (configuration not stated), the TGI was > 100 µM.

Compound `Clc1ccc(-c2nn3c(-c4ccncc4)nnc3s2)cc1` displayed a TGI of 51.3 µM.

With `COc1ccc(C(OCC2OC(n3cc(C)c(=O)[nH]c3=O)CC2n2cc(Cn3cc(F)c(=O)[nH]c3=O)nn2)(c2ccccc2)c2ccccc2)cc1` (configuration not stated), the TGI was determined as 25.7 µM.

In the case of `C=CCn1c(=O)ccn(COCCO)c1=O`, the TGI is > 100 µM.

For `Oc1ccccc1/C=N/c1nc2cc3sc(/N=C/c4ccccc4O)nc3cc2s1`, the TGI is > 100 µM.

Turning to `CCN(CC)CCOc1ccc(N2C(=O)c3cc(OC)c(OC)cc3C2=O)cc1`, the TGI was > 100 µM.

The compound `C(=N\NC1=NCCCN1)/c1ccc2ccccc2c1` returned a TGI of 26.5 µM.

`CCOC(=N)n1c(=O)n(C2=NCCN2)c2ccccc21`: the TGI was > 100 µM.

In the case of `O=C(NCCN1CCOCC1)c1ccc2cc(C(=O)N3CC(CCl)c4ccc([N+](=O)[O-])cc43)[nH]c2c1` (configuration not stated), the TGI was determined as 30.8 µM.

Consider `O=c1c2cc3c(cc2[nH]c2ncccc12)OCO3`, for which the TGI is > 10 µM.

As for `O=C(CNc1ccccc1Cl)Nn1c(-c2ccccc2)nc2ccccc2c1=O`, the TGI came out at 72.9 µM.

On to `Cc1csc(-c2cn(C)c3c2C(=O)C(N)=CC3=O)n1`, for which the TGI was found to be 98.5 µM.

For the compound `Cc1cc2[nH]c3[nH]c(=O)[nH]c(=O)c3c2cc1C`, the TGI is > 100 µM.

Turning to `Nc1c(-c2cccc3ccccc23)c2ccc([N+](=O)[O-])cc2c(=O)n1-c1nc2ccccc2s1`, the TGI came out at 27.2 µM.

Take `CC1CC[C@@]2(OC1)OC1C[C@H]3[C@@H]4CC[C@H]5CC(OC6OC(CO)C(OC7OC(CO)C(O)C(O)C7OC7OC(CO)C(O)C(O)C7O)C(O)C6O)CCC5(C)[C@H]4CCC3(C)C1[C@@H]2C` (some centres not stated): the TGI is 3.65 µM.

Regarding `CC1(C)N=C(C(N)=O)c2ncn(CCCO)c2N1`, the TGI was > 100 µM.

`CC(C)COP(=O)(OCC(C)C)C(NS(=O)(=O)c1ccccc1)(C(F)(F)F)C(F)(F)F` had a TGI of 35.1 µM.

Compound `CN(C)CCCN1C(=S)N(CCCN(C)C)c2c3cc(O)ccc3nc3c([N+](=O)[O-])ccc1c23` displayed a TGI of 15.3 µM.

Take `CC(O)C1CC1(CO)CNc1cc(Cl)nc(N)n1` (configuration not stated): the TGI is > 100 µM.

On to `CN(C)Cc1cc(C(=O)/C=C/c2ccc(O)cc2)cc(CN(C)C)c1O`, for which the TGI was > 100 µM.

The test system of another assay is SNB-19 CNS. The assay can be described thus: NCI tumour cell line growth inhibition, 48 h.
In turn, `O=c1cc(N=P(c2ccccc2)(c2ccccc2)c2ccccc2)n(-c2ccccc2)c(=O)n1-c1ccccc1` gave a TGI of 63.5 µM.

For the compound `COc1ccc(C2(CC(C)O)SCCCS2)cc1` (configuration not stated), the TGI was > 100 µM.

As to `Clc1ccc(-c2nn3c(-c4ccncc4)nnc3s2)cc1`, the TGI was > 100 µM.

As for `COc1ccc(C(OCC2OC(n3cc(C)c(=O)[nH]c3=O)CC2n2cc(Cn3cc(F)c(=O)[nH]c3=O)nn2)(c2ccccc2)c2ccccc2)cc1` (configuration not stated), the TGI turned out to be 22.8 µM.

As to `C=CCn1c(=O)ccn(COCCO)c1=O`, the TGI is > 100 µM.

For `Oc1ccccc1/C=N/c1nc2cc3sc(/N=C/c4ccccc4O)nc3cc2s1`, the TGI is > 100 µM.

As for `CCN(CC)CCOc1ccc(N2C(=O)c3cc(OC)c(OC)cc3C2=O)cc1`, the TGI is > 100 µM.

For the compound `C(=N\NC1=NCCCN1)/c1ccc2ccccc2c1`, the TGI came out at 31.8 µM.

For `CCOC(=N)n1c(=O)n(C2=NCCN2)c2ccccc21`, the TGI was > 100 µM.

For the compound `O=C(NCCN1CCOCC1)c1ccc2cc(C(=O)N3CC(CCl)c4ccc([N+](=O)[O-])cc43)[nH]c2c1` (configuration not stated), the TGI stood at 28.8 µM.
